Measured values from patent US12144789B2, “Pharmaceutical composition exhibiting anti-tumor activity, method for treating patient suffering from cancer and method for inhibiting tumor growth” (Gongwin Biopharm Co., Ltd., priority 2016, dated 2024).
Like-named read-outs stand apart in the source and are kept apart here.

Tests used:
Tca-8113 cells [1] = assay: cells; format: cell-based; settings: 1 h
Description: Next, cancer cell death is measured by using flow cytometric analysis. Tca-8113 cells were treated with 40 μmol/l and 80 μmol/l PTS or DMSO (control) for 1 h. Cells were stained with Annexin V− FITC and propidium iodide (PI), followed by flow cytometric analysis.

Tca-8113 cells [2] = assay: Colony formation assay; format: cell-based; settings: 80 μmol/l PTS
Excerpt: Colony formation assay shown in FIG. 6 further confirms the cytotoxic effects of PTS on Tca-8113 cells.

Tca-8113 cells [3] = assay: Morphologic changes by phase-contrast microscope; format: cell-based; settings: 40 μmol/l PTS for 1 h
Description: Next, in observing the morphological feature of the treated cells, Tca-8113 and HGF cells were treated with 40 μmol/l PTS or DMSO (control vehicle) for 1 h; the morphologic changes were observed using a phase-contrast microscope.

[4] = test system: Human gingival fibroblast (HGF) cells; format: cell-based; settings: 10 min
Description: (§1) In assessing the accumulation of intracellular PTS between Tca-8113 cells and normal cells after different doses and incubation periods of PTS treatment, Tca-8113 and Human gingival fibroblast (HGF) cells were treated 2.5 μmol/l˜80 μmol/l PTS for different periods. Please see FIG. 2A and FIG. 2B, which show the plots of intracellular PTS concentration after 2.5 μmol/l˜80 μmol/l PTS treatment for different periods of time in Tca-8113 and HGF cell, respectively. […] However, the accumulated intracellular PTS concentration in […] cells is much higher than that in HGF cells. […] The intracellular PTS concentration variation between the Tca-8113 cells and HGF cells can range from 5× (20 μmol/l), 8× (40 μmol/l) to 12 (80 μmol/l).

Tca-8113 cells [5] = format: cell-based; settings: human; for intracellular PTS concentration variation between Tca-8113 cells and HGF cells: 10 min
Description: Firstly, Tca-8113 were treated with PTS or dimethyl sulfoxide (DMSO) (control vehicle) and then extract the intracellular matrix subjected to high-performance liquid chromatography.
as §1

[6] = cited from earlier work
Tca-8113 cells [7] = assay: Lactate dehydrogenase (LDH) release assay (necrosis); format: cell-based; settings: 80 μmol/l PTS, 1 h
Description: Furthermore, in studying PTS-induced necrosis, LDH release assay is used. LDH is a cytosolic enzyme that can be released into culture medium upon damage of the plasma membrane. Necrosis, which results in an early loss of plasma membrane integrity, can be determined using the LDH release assay. In LDH release assay, Tca-8113 cells were treated with 80 μmol/l PTS or DMSO for 1 h; PTS-induced necrosis was determined using the lactate dehydrogenase (LDH) release assay.

Tca-8113 cells [8] = assay: Transmission electron microscopy of ultrastructural changes; format: cell-based; settings: 40 μmol/l PTS, 1 h
Description: To investigate the mechanisms of PTS-induced cell death, the present invention uses transmission electron microscopy analysis to observe the changes in ultrastructures of Tca-8113 cells. Tca-8113 cells were treated with 40 μmol/l PTS or dimethyl sulfoxide for 1 h. The ultrastructural changes were observed using a transmission electron microscope. […] More secondary lysosomes (pointed by arrow) with high electron density were observed after PTS treatment. Lysosomal instability was proposed to control the fate of cells either through activation of apoptosis or necrosis.

[9] = test system: Human gingival fibroblast (HGF) cells; format: cell-based
Description: (§2) To examine the effects of PTS on cell viability, Tca-8113 and HGF cells were treated with different doses of PTS for 1 h. The 3-(4,5-dimethylthiazol-2-yl)-2,5-diphenyltetrazolium bromide (MTT) assay is conducted by treating Tca-8113 and human gingival fibroblast (HGF) cells with 2.5 μmol/l, 5 μmol/l, 10 μmol/l, 20 μmol/l, 40 μmol/l and 80 μmol/l PTS for 1 h, respectively. The effects of PTS on cell viability were assessed using MTT 72 h after treatment. […] PTS induces more significant cell death in […] cells than that in normal gingival fibroblasts. Taking the 10 μmol/l […] treatment for example, about 50% Tca-8113 cells were suppressed while only 10% […] cells were suppressed, so the suppression ratio (cancer cell suppression %/normal cell suppression %) is 5. Similarly, the suppression ratios of 20 μmol/l, 40 μmol/l and 80 μmol/l are 2.6, 1.8, 1.05.

Tca-8113 cells [10] = assay: Transwell migration assay; format: cell-based; settings: 40 μmol/l PTS, 1 h
Description: The effect of PTS on the invasive ability of cancer cells is also investigated. Tca-8113 cells were treated with 40 μmol/l PTS or DMSO for 1 h; the effects of PTS on cell migration were determined using a transwell migration assay.

[11] = test system: Lysosomes of Tca-8113 cells; assay: Lysosomal integrity assay (LMP), lysosomal β-galactosidase free activity; format: biochemical; settings: isolated lysosomes of Tca-8113 cells
Description: Next, a lysosomal integrity assay (LMP) is performed to assess the effects of PTS on lysosomal membrane integrity. Lysosomes of Tca-8113 cells were isolated using the Percoll gradient centrifugation method. The effects of PTS on lysosomal integrity were assessed by measuring the activity of lysosomal β-galactosidase using UMBG (4-methylumbelliferyl-β-D-galactoside). The 4-methylumbelliferone released was determined by measuring its fluorescence (excitation: 365 nm, emission: 444 nm) on a fluorescence spectrophotometer. The activity of the enzyme measured in the presence and absence of 0.36% Triton X-100 was designated the […], respectively.

[12] = test system: mitochondrial ATP biosynthesis in Tca-8113 cells; assay: ATP biosynthesis by chemiluminescence; format: cell-based; settings: 40 μmol/l PTS
Description: (§3) Increased lysosomal permeability is reported to induce mitochondrial damage and the release of pro-apoptotic factors. The applicant therefore investigated the cytosolic cytochrome c released from the mitochondria after PTS treatment. […] Inhibition of ATP biosynthesis is observed when Tca-8113 cells were treated with 40 μmol/l PTS or DMSO for […]. The effects of PTS on ATP biosynthesis were assessed by measuring chemiluminescence. […] 40 μmol/l PTS treatment for 1 h attenuated ATP biosynthesis to 65.8%.

Tca-8113 cells [13] = assay: MTT cell viability assay; format: cell-based; settings: for suppression ratio (cancer cell suppression %/normal cell suppression %): Tca-8113 vs HGF
Description: as §2

cathepsin B = assay: Western blot analysis of cleaved cathepsin B; format: cell-based; settings: Tca-8113 cells, 40 μmol/l PTS, 1 h
Description: In the western blot analysis, Tca-8113 cells are analyzed after 40 μmol/l PTS treatment for 1 h.

cytochrome c = assay: Western blot analysis of cytosolic cytochrome c; format: cell-based; settings: Tca-8113 cells, 40 μmol/l and 80 μmol/l PTS, 1 h
Description: as §3

[14] = read-out: Viable cells (Annexin V−/PI−)
[15] = 10 μmol/l for 1 h, MTT 72 h after treatment

## Cc1ccc(S(N)(=O)=O)cc1 [PTS, para-toluenesulfonamide]
Tca-8113 cells [1]; 40 μmol/l PTS
  Late apoptotic/necrotic rate (Annexin V+/PI+): 11.5%
  early apoptotic rate (Annexin V+/PI−): 20.2%
Tca-8113 cells [1]; 80 μmol/l PTS
  Late apoptotic/necrotic rate (Annexin V+/PI+): 15.9%
  early apoptotic rate (Annexin V+/PI−): 64.1%
Tca-8113 cells [1]; [14]
  viability at 40 µM: 67.5%
  viability at 80 µM: 19.8%
Tca-8113 cells [2]
  number of viable cells (colony formation): almost completely suppressed the number of viable cells
Tca-8113 cells [3]
  morphologic changes: induce classical apoptotic features including cell shrinkage, nuclear condensation, cell density reduction, and apoptotic body formation
[4]
  intracellular PTS accumulation: significantly inhibited in HGF cells compared with that in Tca-8113 cells
Tca-8113 cells [5]
  intracellular PTS concentration: increase the intracellular PTS concentration in Tca-8113 cells in a dose dependent manner
Tca-8113 cells [5]; 20 μmol/l
  intracellular PTS concentration variation between Tca-8113 cells and HGF cells: 5 ×
Tca-8113 cells [5]; 40 μmol/l
  intracellular PTS concentration variation between Tca-8113 cells and HGF cells: 8 ×
Tca-8113 cells [5]; 80 μmol/l
  intracellular PTS concentration variation between Tca-8113 cells and HGF cells: 12
[6]
  solubility in water or a water-based solution: not readily dissolved in water or in a water-based solution
Tca-8113 cells [7]
  LDH release compared with the control group: two-fold increase
Tca-8113 cells [8]
  ultrastructural changes: shrunk nuclei and an irregular nuclear membrane
[9]; [15]
  HGF cells suppressed: 10%
[9]; human, 1 h
  inhibitory effects of PTS in HGF cells: significantly decreased compared with that in Tca-8113 cells
Tca-8113 cells [10]
  invasive ability (cell migration): significantly reduced the invasive ability of Tca-8113 cells
[11]
  free enzyme activity (lysosomal β-galactosidase): significantly increase free enzyme activity in a dose-dependent manner
[12]; 24-48 h
  mitochondrial ATP biosynthesis: significantly inhibited mitochondrial ATP biosynthesis in a time-dependent manner
[12]; 1 h
  ATP biosynthesis attenuated to: 65.8%
Tca-8113 cells [13]; [15]
  Tca-8113 cells suppressed: about 50%
Tca-8113 cells [13]; 10 μmol/l
  suppression ratio (cancer cell suppression %/normal cell suppression %): 5
Tca-8113 cells [13]; 20 μmol/l
  suppression ratio (cancer cell suppression %/normal cell suppression %): 2.6
Tca-8113 cells [13]; 40 μmol/l
  suppression ratio (cancer cell suppression %/normal cell suppression %): 1.8
Tca-8113 cells [13]; 80 μmol/l PTS for 1 h, MTT 72 h after treatment
  number of viable cells: almost completely suppressed the number of viable cells
Tca-8113 cells [13]; 80 μmol/l
  suppression ratio (cancer cell suppression %/normal cell suppression %): 1.05
Tca-8113 cells [13]; 2.5-80 μmol/l PTS for 1 h, MTT 72 h after treatment
  viability of Tca-8113 cells: significantly reduced the viability of Tca-8113 cells in a dose-dependent manner
Cathepsin B
  cleaved cathepsin B expression: significantly increases cleaved cathepsin B expression
Cytochrome c
  cytosolic cytochrome c expression: significantly induced cytosolic cytochrome c expression
